Reference: US5932555A (priority 1997, dated 1999)
In brackets after ≈: the same amount, converted by molar mass.

Tests used:
[1] = system: blastgenesis of lymphocytes; assay: Mouse allogenic mixed lymphocyte reaction (MLR), inhibition of blastgenesis ([3H]-thymidine incorporation); assay type: cell-based, mouse (C57BL/6 responder, BALB/C stimulator); conditions: 96 h
Method: The mouse allogenic mixed lymphocyte reaction for assay was carried out according to the method of Hatanaka et al. (Hatanaka et al., J. Antibiotics, 41, 1592-1601 (1988)). That is, spleen cells from C57BL/6 mouse (H-2^b) as responder cells were mixed with spleen cells from BALB/C mouse (H-2^d) treated with mitomycin C as stimulator cells, and then cultured.
Preparation of the responder cells was carried out in the following manner:
The spleen was removed from a 5- to 6-week-old C57BL/6 mouse, then homogenized in 20 ml ice-cold RPMI 1640 medium supplemented with 10% heat inactivated fetal calf serum (FCS), and filtered through a gauze to give a single cell suspension. The cells were recovered by centrifugation, suspended in 4 ml PRMI 1640 medium, followed by adding 6 ml solution (pH 7.2) containing 0.15 M ammonium chloride, 1 mM sodium hydrogen carbonate and 0.1 mM tetrasodium ethylenediaminetetraacetate, and the mixture was incubated at 0° C. for 1 minute to remove the contaminating erythrocytes. […]
90 μl of the responder cell suspension, 90 μl of the stimulator cell suspension and 20 μl of sample were added to a 96-well microplate and incubated at 37° C. in wet 5% CO2 /95% air for 96 hours. […] The radioactivity of a filter disk corresponding to each well was determined using liquid scintillation counter (beta-counter).

CDF1 mice = assay: Repeated administration toxicity test (intraperitoneal); assay type: in vivo, mouse (CDF1); conditions: for Body weight, Day 0: Day 0 (baseline)
Method: As the comparative control, test solutions of adriamycin were prepared in the same manner. […] The number with time of survived animals after administration and the average body weights on Days 0, 5, and 10 were determined.

P388 [2] = assay: Cytotoxicity test on cultured tumor cell line P388 (MTT, 72 h); assay type: cell-based
Method: (§1) Cultured tumor cell lines P388 and P388/ADR were suspended in RPMI1640 medium containing 10% heat inactivated fetal calf serum (FCS) and 20 μM 2-mercaptoethanol whereby a cell suspension (5×10^4 cells/ml) was prepared.
72 hours thereafter, cell growth was measured by a calorimetric assay method using 3-(4,5-dimethyl-2-thiazolyl)-2,5-diphenyl-2H-tetrazolium bromide (MTT) as follows: 20 μl of 2 mg/ml MTT solution was added to each well and the cells were incubated for 4 hours at 37° C. Thereafter, 50 μl of 50% dimethylformamide solution containing 20% sodium dodecyl sulfate was added to each well and allowed to stand, so that the formed violet formazan crystal was dissolved, and its absorbance at 570 nm was measured in a microplate absorbance photometer (Immunoreader) and used as an indicator of the growth.
(§2) Degree of inhibition=[1-(absorbance in presence of sample)/(absorbance in
(§3) absence of sample)]×100 (1)

Solubility = assay type: physicochemical
P388 [3] = assay: Mouse in vivo antitumor test, P388 transplanted
Method: 2×10^5 cells of P388 or P388/ADR were inoculated intraperitoneally into each of CDF1 mice (male, each weighing 20 g, 10 animals/group), and from the next day, the test solution was administered at 10, 5, and 1 mg/kg body weight/day respectively by intraperitoneal injection of 200 μl sample at each concentration once a day for 10 successive days. The numbers with time of mice which survived after administration was counted and the average survival days and T/C (survival days of treated mice/survival days of control mice) were calculated. The average body weights after 10 days were also measured.

[4] = system: adriamycin-resistant P388; assay: Cytotoxicity test on adriamycin-resistant P388 (P388/ADR) (MTT, 72 h); assay type: cell-based
Method: as §1
A sample examined was dissolved in methanol, then diluted with RPMI 1640 medium and subjected to serial 2-fold dilution starting at the concentration of 0.1 mg/ml. 180 μl of the cell suspension and 20 μl of the sample solution were added into a 96-well micro-titer plate and incubated at 37° C. in wet 5% CO2 gas/95% air. 72 hours thereafter, cell growth was measured by a calorimetric assay method using 3-(4,5-dimethyl-2-thiazolyl)-2,5-diphenyl-2H-tetrazolium bromide (MTT) as follows: 20 μl of 2 mg/ml MTT solution was added to each well and the cells were incubated for 4 hours at 37° C. Thereafter, 50 μl of 50% dimethylformamide solution containing 20% sodium dodecyl sulfate was added to each well and allowed to stand, so that the formed violet formazan crystal was dissolved, and its absorbance at 570 nm was measured in a microplate absorbance photometer (Immunoreader) and used as an indicator of the growth. The result was expressed in terms of the concentration of a sample at which growth was inhibited by 50% (IC50), which was determined from the relationship between sample concentrations and degrees of inhibition calculated using the following equation (1):
as §2, §3

[5] = P388, 1 mg/kg/day i.p. × 10 days
[6] = P388, 5 mg/kg/day i.p. × 10 days
[7] = P388, 10 mg/kg/day i.p. × 10 days

Which results are given for COC(CC1C(C)=CCC2C1(C)CCC1C(C)(C)C(O)C(OC3OC(C)C(OC(=O)c4cccc(O)c4)C(OC4OC(CO)C(O)C(O)C4NC(C)=O)C3O)CC12C)C(N)C(=O)O (stereo not shown) [0406TP-1]?
IC50 [1]: 0.11 µg/mL (≈ 0.123 µM); Body weight, Day 0 (CDF1 mice; 1 mg/kg/day i.p. group): 22.0 g; Body weight, Day 5 (CDF1 mice; 1 mg/kg/day i.p.): 23.1 g; Body weight, Day 10 (CDF1 mice; 1 mg/kg/day i.p.): 25.0 g; Body weight, Day 0 (CDF1 mice; 5 mg/kg/day i.p. group): 21.8 g; Body weight, Day 5 (CDF1 mice; 5 mg/kg/day i.p.): 23.7 g; Body weight, Day 10 (CDF1 mice; 5 mg/kg/day i.p.): 25.5 g; Body weight, Day 0 (CDF1 mice; 10 mg/kg/day i.p. group): 21.4 g; Body weight, Day 5 (CDF1 mice; 10 mg/kg/day i.p.): 23.6 g; Body weight, Day 10 (CDF1 mice; 10 mg/kg/day i.p.): 25.4 g; IC50 (P388 [2]; Mus musculus, P388, 72 h, MTT, read-out: IC50 (growth inhibition)): 0.65 µg/mL (≈ 0.728 µM); cytotoxicity (antitumor activity) on cultured tumor cells (P388 [2]; in words): strong cytotoxicity; Solubility (Solubility; acetone): Insoluble; Solubility (Solubility; chloroform): Insoluble; Solubility (Solubility; ethanol): Soluble; Solubility (Solubility; ether): Insoluble; Solubility (Solubility; ethyl acetate): Insoluble; Solubility (Solubility; methanol): Soluble; Solubility (Solubility; water): Soluble; T/C (P388 [3]; [5]): 123%; average body weight after 10 days (P388 [3]; [5]): 25.9 g; average survival days (P388 [3]; [5]): 12.7 days; T/C (P388 [3]; [6]): 123%; average body weight after 10 days (P388 [3]; [6]): 26.3 g; average survival days (P388 [3]; [6]): 12.7 days; T/C (P388 [3]; [7]): 128%; average body weight after 10 days (P388 [3]; [7]): 27.3 g; average survival days (P388 [3]; [7]): 13.2 days; therapeutic effect (improvement in survival rate) (P388 [3]; P388-transplanted mice, adriamycin 1 mg/kg/day vs 0406TP-1): same degree of therapeutic effect; IC50 ([4]; Mus musculus, adriamycin-resistant P388, 72 h, MTT, read-out: IC50 (growth inhibition)): 0.22 µg/mL (≈ 0.246 µM); inhibition on growth of adriamycin-resistant cells ([4]; in words): strong inhibition
